Reference: patent publication US8883782B2, “Spiro-tetracyclic ring compounds as beta-secretase modulators and methods of use” (Amgen Inc., priority 2010, dated 2014)
Where two headings read alike, the source gives them in different places.

Key:
[1] = target: Beta Secretase enzyme (BACE) (Homo sapiens, UniProt P56817); test: In vitro enzymatic BACE FRET (fluorescence resonance energy transfer) assay; assay type: biochemical; details: average IC50, enzyme assay; read-out: BACE 1 FRET assay
Outline: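 A peptide bearing a fluorophore and quencher across the cleavage site serves as substrate at 50 nM. Reactions proceed one hour in acidic acetate buffer (0.05 M, pH 4.2) containing 10% DMSO final and 100 uM genapol, then are terminated with Tris and read fluorimetrically.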

[2] = system: Aβ40 in conditioned medium of cells stably expressing Amyloid Precursor Protein (APP); test: In vitro BACE cell-based assay (Aβ40 in conditioned medium, sandwich ELISA); details: read-out: HEK cell assay
Outline: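 Secreted Aβ40 is captured with pAb40 and detected with biotinylated 6E10, read by europium time-resolved fluorescence. IC50 comes from percent inhibition versus concentration.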

[3] = Homo sapiens, HEK293, average IC50, HEK cells
[4] = Homo sapiens, HEK293, average IC50

Beta Secretase enzyme (BACE), sequence (P56817 46-501, species assumed): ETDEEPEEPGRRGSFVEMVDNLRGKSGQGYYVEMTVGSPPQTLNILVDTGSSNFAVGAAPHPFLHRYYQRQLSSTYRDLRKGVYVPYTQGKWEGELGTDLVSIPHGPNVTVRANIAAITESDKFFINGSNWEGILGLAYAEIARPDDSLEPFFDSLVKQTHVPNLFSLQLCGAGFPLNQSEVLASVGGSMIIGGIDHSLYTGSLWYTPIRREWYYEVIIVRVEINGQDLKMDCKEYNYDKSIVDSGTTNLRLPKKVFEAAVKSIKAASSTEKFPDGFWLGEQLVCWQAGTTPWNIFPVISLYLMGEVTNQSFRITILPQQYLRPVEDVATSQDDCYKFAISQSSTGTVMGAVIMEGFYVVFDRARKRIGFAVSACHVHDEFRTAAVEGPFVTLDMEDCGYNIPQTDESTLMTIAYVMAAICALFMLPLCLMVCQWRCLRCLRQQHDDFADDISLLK

IC50 [1] [nM] | IC50 [2, 3] [nM] | IC50 [2, 4] [nM] | Molecule | IC50 ([2]; average IC50) [nM]
0.3 | 4 | – | CC#Cc1cnc(F)c(-c2ccc3c(c2)[C@@]2(COC(N)=N2)c2cc(C4=CCOCC4)cnc2O3)c1 [Example 953, (5S)-3-(3,6-dihydro-2H-pyran-4-yl)-7-(2-fluoro-5-(1-propyn-1-yl)-3-pyridinyl)spiro[chromeno[2,3-b]pyridine-5,4′-[1,3]oxazol]-2′-amine] | –
57.4 | – | 538 | NC1=N[C@@]2(CO1)c1cc(Oc3ccc(Cl)cn3)ccc1Oc1c(F)cc(N3CCOCC3)cc12 [Example 1061, (4S)-7′-((5-chloro-2-pyridinyl)oxy)-4′-fluoro-2′-(4-morpholinyl)spiro[1,3-oxazole-4,9′-xanthen]-2-amine] | –
4630 | – | ≥ 10000 | CC1(C#Cc2cc3c(cc2OC(F)(F)F)Oc2ccc(-c4cccnc4F)cc2[C@]32COC(N)=N2)COC1 [Example 987, (4R)-7′-(2-fluoro-3-pyridinyl)-2′-((3-methyl-3-oxetanyl)ethynyl)-3′-(trifluoromethoxy)spiro[1,3-oxazole-4,9′-xanthen]-2-amine] | –
2.8 | 14.2 | – | C[C@@H]1CN(c2cc(F)c3c(c2)[C@]2(COC(N)=N2)c2cc(-c4cncc(C#N)c4)ccc2O3)C[C@H](C)O1 [Example 560, 5-((4S)-2-amino-7′-((2R,6S)-2,6-dimethyl-4-morpholinyl)-5′-fluorospiro[1,3-oxazole-4,9′-xanthen]-2′-yl)-3-pyridinecarbonitrile] | –
0.4 | – | 14 | NC1=N[C@@]2(CS1)c1cc(-c3cccnc3F)ccc1Oc1c2cc(-c2ccncc2)nc1F [Example 1027, (5S)-1-fluoro-7-(2-fluoro-3-pyridinyl)-3-(4-pyridinyl)spiro[chromeno[2,3-c]pyridine-5,4′-[1,3]thiazol]-2′-amine] | –
1.1 | 15 | – | COC(C)(C)C#Cc1cnc2c(c1)[C@]1(COC(N)=N1)c1cc(-c3cncnc3)c(F)cc1O2 [Example 643, (5S)-8-fluoro-3-(3-methoxy-3-methyl-1-butyn-1-yl)-7-(5-pyrimidinyl)spiro[chromeno[2,3-b]pyridine-5,4′-[1,3]oxazol]-2′-amine] | –
0.6 | – | 6 | N#Cc1cc(-c2ccc3c(c2)[C@@]2(CSC(N)=N2)c2cc(C4=CCOCC4)cnc2O3)ccc1F [Example 764, 5-((5S)-2′-amino-3-(3,6-dihydro-2H-pyran-4-yl)spiro[chromeno[2,3-b]pyridine-5,4′-[1,3]thiazol]-7-yl)-2-fluorobenzonitrile] | –
0.3 | – | 3 | CC#Cc1cncc(-c2ccc3c(c2)[C@@]2(CSC(N)=N2)c2cc(-c4ccnc(F)c4)cnc2O3)c1 [Example 781, (5S)-3-(2-fluoro-4-pyridinyl)-7-(5-(1-propyn-1-yl)-3-pyridinyl)spiro[chromeno[2,3-b]pyridine-5,4′-[1,3]thiazol]-2′-amine] | –
0.4 | 6 | – | N#Cc1cccc(-c2ccc3c(c2)[C@@]2(COC(N)=N2)c2cc(N4CC[C@@H](F)C4)nc(F)c2O3)c1 [Example 919, 3-((5S)-2′-amino-1-fluoro-3-((3R)-3-fluoro-1-pyrrolidinyl)spiro[chromeno[2,3-c]pyridine-5,4′-[1,3]oxazol]-7-yl)benzonitrile] | –
0.5 | – | 2 | CC#Cc1cncc(-c2ccc3c(c2)[C@@]2(CSC(N)=N2)c2cc(C4=CCOCC4)cnc2O3)c1 [Example 772, (5S)-3-(3,6-dihydro-2H-pyran-4-yl)-7-(5-(1-propyn-1-yl)-3-pyridinyl)spiro[chromeno[2,3-b]pyridine-5,4′-[1,3]thiazol]-2′-amine] | –
335 | 5930 | – | COCC1SC(N)=N[C@]12c1cc(-c3cccnc3F)ccc1Oc1cnc(-c3ccnc(F)c3)cc12 (stereo partly drawn) [Example 722, (5S)-7-(2-fluoro-3-pyridinyl)-3-(2-fluoro-4-pyridinyl)-5′-(methoxymethyl)spiro[chromeno[2,3-c]pyridine-5,4′-[1,3]thiazol]-2′-amine] | –
0.4 | – | 74 | NC1=N[C@@]2(CO1)c1cc(-c3cccnc3F)ccc1Oc1c2cc(C#Cc2cccnc2)nc1F [Example 748, (5S)-1-fluoro-7-(2-fluoro-3-pyridinyl)-3-(3-pyridinylethynyl)spiro[chromeno[2,3-c]pyridine-5,4′-[1,3]oxazol]-2′-amine] | –
19.9 | 540 | – | CN(C)c1cc2c(cn1)Oc1ccc(-c3cccnc3)cc1C21CSC(N)=N1 [Example 889, (5R)-N~3~,N~3~-dimethyl-7-(3-pyridinyl)spiro[chromeno[2,3-c]pyridine-5,4′-[1,3]thiazole]-2′,3-diamine, (5S)-N~3~,N~3~-dimethyl-7-(3-pyridinyl)spiro[chromeno[2,3-c]pyridine-5,4′-[1,3]thiazole]-2′,3-diamine] | –
5.5 | – | 460 | CC1(C#Cc2cncc(-c3ccc4c(c3)[C@@]3(COC(N)=N3)c3cc(-c5ccnc(F)c5)ncc3O4)c2)COC1 [Example 812, (5S)-3-(2-fluoro-4-pyridinyl)-7-(5-((3-methyl-3-oxetanyl)ethynyl)-3-pyridinyl)spiro[chromeno[2,3-c]pyridine-5,4′-[1,3]oxazol]-2′-amine] | –

The next lines start with the molecule.

Molecule | IC50 [1] [nM] | IC50 [2, 3] [nM] | IC50 [2, 4] [nM] | IC50 ([2]; average IC50) [nM]
CC1(C)C=C(c2cnc3c(c2)[C@@]2(COC(N)=N2)c2c(ccc(-c4cccnc4F)c2F)O3)CCO1 [Example 350, (5S)-3-(6,6-dimethyl-3,6-dihydro-2H-pyran-4-yl)-6-fluoro-7-(2-fluoro-3-pyridinyl)spiro[chromeno[2,3-b]pyridine-5,4′-[1,3]oxazol]-2′-amine] | 530 | – | 685 | –
NC1=N[C@@]2(CO1)c1cc(-c3cncc(F)c3)ccc1Oc1c(F)cc([C@@H]3CCCOC3)cc12 [Example 284, (4S)-4′-fluoro-7′-(5-fluoro-3-pyridinyl)-2′-((3S)-tetrahydro-2H-pyran-3-yl)spiro[1,3-oxazole-4,9′-xanthen]-2-amine] | 2.2 | – | 13.5 | –
CC1(C#Cc2cnc3c(c2)[C@]2(COC(N)=N2)c2cc(-c4cc(Cl)cnc4F)ccc2O3)COC1 [Example 456, (5S)-7-(5-chloro-2-fluoro-3-pyridinyl)-3-((3-methyl-3-oxetanyl)ethynyl)spiro[chromeno[2,3-b]pyridine-5,4′-[1,3]oxazol]-2′-amine] | 0.6 | 2.2 | – | –
NC1=NC2(CO1)c1cc(-c3cccnc3F)ccc1Oc1nc(F)c(-c3ccnc(F)c3)cc12 (centres unmarked) [Example 151, 2-fluoro-7-(2-fluoro-3-pyridinyl)-3-(2-fluoro-4-pyridinyl)spiro[chromeno[2,3-b]pyridine-5,4′-[1,3]oxazol]-2′-amine] | 1.3 | – | 50.8 | –
CC1(C)CN(c2cc(F)c3c(c2)[C@]2(COC(N)=N2)c2cc(-c4cncc(F)c4)ccc2O3)CCO1 [Example 282, (4S)-2′-(2,2-dimethyl-4-morpholinyl)-4′-fluoro-7′-(5-fluoro-3-pyridinyl)spiro[1,3-oxazole-4,9′-xanthen]-2-amine] | 2 | – | 8.2 | –
CC1(C#Cc2cnc3c(c2)[C@]2(COC(N)=N2)c2cc(-c4cncc(F)c4)ccc2O3)COC1 [Example 458, (5S)-7-(5-fluoro-3-pyridinyl)-3-((3-methyl-3-oxetanyl)ethynyl)spiro[chromeno[2,3-b]pyridine-5,4′-[1,3]oxazol]-2′-amine] | 1.2 | 5.1 | – | –
Cc1cc(-c2cc3c(cn2)Oc2ccc(-c4ccccc4)cc2[C@@]32COC(N)=N2)on1 [Example 366, (5S)-3-(3-methyl-5-isoxazolyl)-7-phenylspiro[chromeno[2,3-c]pyridine-5,4′-[1,3]oxazol]-2′-amine] | 80.1 | – | 361 | –
Cc1nc(F)ccc1-c1ccc2c(c1)[C@@]1(COC(N)=N1)c1cc(-c3ccnc(F)c3)ncc1O2 [Example 252, (5S)-7-(6-fluoro-2-methyl-3-pyridinyl)-3-(2-fluoro-4-pyridinyl)spiro[chromeno[2,3-c]pyridine-5,4′-[1,3]oxazol]-2′-amine] | 66.1 | – | 548 | –
Cn1cc(-c2cc(F)c3c(c2)[C@]2(COC(N)=N2)c2cc(OCC4(C)COC4)ccc2O3)cn1 [Example 444, (4S)-4′-fluoro-7′-((3-methyl-3-oxetanyl)methoxy)-2′-(1-methyl-1H-pyrazol-4-yl)spiro[1,3-oxazole-4,9′-xanthen]-2-amine] | 20 | 38.6 | – | –
COc1ccc(-c2cc(F)c3c(c2)[C@]2(COC(N)=N2)c2cc(-c4cncc(F)c4)ccc2O3)nn1 [Example 290, (4S)-4′-fluoro-7′-(5-fluoro-3-pyridinyl)-2′-(6-methoxy-3-pyridazinyl)spiro[1,3-oxazole-4,9′-xanthen]-2-amine] | 0.8 | – | 8.1 | –
NC1=N[C@@]2(CO1)c1cc(-c3ccc(F)cc3)ccc1Oc1cnc(-c3cncnc3)cc12 [Example 396, (5S)-7-(4-fluorophenyl)-3-(5-pyrimidinyl)spiro[chromeno[2,3-c]pyridine-5,4′-[1,3]oxazol]-2′-amine] | 136 | 1080 | – | –
COC(C)(C)COc1cnc2c(c1)[C@@]1(COC(N)=N1)c1cc(-c3cccc(F)c3F)ccc1O2 [Example 314, (5R)-7-(2,3-difluorophenyl)-3-(2-methoxy-2-methylpropoxy)spiro[chromeno[2,3-b]pyridine-5,4′-[1,3]oxazol]-2′-amine] | 1920 | – | 3660 | –
CC(C)(C#N)COc1cc(F)c2c(c1)[C@]1(COC(N)=N1)c1cc(-c3cccnc3)ccc1O2 [Example 257, 3-(((4S)-2-amino-4′-fluoro-7′-(3-pyridinyl)spiro[1,3-oxazole-4,9′-xanthen]-2′-yl)oxy)-2,2-dimethylpropanenitrile] | 1 | – | 6.3 | –
(4R)-4′-fluoro-2′-methoxy-7′-(5-pyrimidinyl)spiro[1,3-thiazole-4,9′-xanthen]-2-amine [Example 215] | 8.1 | – | – | 113
